In experiment [1] the target is human α5β3γ2 receptors (α5-GABAA receptor) (Homo sapiens (Human), UniProt P18507+P31644). The experiment in a line: 3H-flunitrazepam competition binding, human α5β3γ2 GABAA receptor. The note with it: HEK293 cell membranes, 1 nM 3H-flunitrazepam; read-out: α5-GABAAR Ki. The gist of the method:
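HEK293 membranes stably expressing each human receptor subtype ([…]) competed against 1 nM 3H-flunitrazepam in Tris buffer, 1 h at room temperature; flumazenil defined the low-signal control. Eight-point 4-fold test-compound dilutions; GF/C filtration and scintillation counting gave IC50 by curve fitting, converted to Ki.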

In a further experiment the target is human α1β3γ2 receptors (Homo sapiens (Human), UniProt P14867+P18507). The experiment in a line: 3H-flunitrazepam competition binding, human α1β3γ2 GABAA receptor. Particulars: HEK293 cell membranes, 1 nM 3H-flunitrazepam; read-out: Ki α1. Here is the method: (§1) The affinity of the compound to each subtype of GABAA receptor was determined by competing for the binding of ^3H-flunitrazepam to HEK293 cells stably expressing human α1β3γ2, α2β3γ2, α3β3γ2, and α5β3γ2 receptors.
(§2) The cells were suspended in 50 mM Tris-HCl buffer (pH=7.4), homogenized 10 times on ice with a homogenizer for 20 seconds, and centrifuged at 1000 g for 10 minutes at 4° C. The supernatant was collected, and the above steps were repeated. The supernatant was centrifuged at 4° C. (33800 g; Thermo, rotor: A27-8×50) for 60 minutes, and the precipitate was resuspended in Tris buffer (50 mM Tris-HCl, 10 mM MgCl2, 0.5 mM EDTA, 10% glycerol). Protein was measured (BCA method, Pierce), and 1 mL aliquots were prepared and stored at −80° C.
(§3) The radioligand competition binding assay was performed in a 200 μL system (96-well plate) containing 100 μL of cell membrane. The concentration of ^3H-flunitrazepam was 1 nM and the concentration of the test compound was in the range of […]. Flumazenil was used as a control. 1 μL of 2 mM flumazenil (final concentration […]) was added to the low signal control well (Low control, LC), and 1 μL of DMSO was added to the high signal control well (High control, HC). The final concentration of target membrane protein was […]. All test compound sample storage solutions were 10 mM. The working concentration of the samples was to dilute all the samples to 0.2 mM with DMSO, followed by 4-fold serial gradient dilutions for a total of 8 concentration gradients. The 96-well plate was sealed with a sealing film, and then incubated on a shaker at room temperature for 1 hour. At the same time, the GF/C filter plate was soaked in soaking buffer (0.3% PEI, stored at 4° C.) for at least 0.5 hours. After the binding incubation was completed, the cells were collected onto a GF/C filter plate using a cell harvester. The plate was washed four times with washing buffer (50 mM Tris-HCl, pH 7.4, stored at 4° C.). After drying in a 50° C. oven for 1 hour, the bottom of the dried GF/C filter plate was sealed. The residual radioactivity on the filter membrane was detected using liquid scintillation counting. 50 μL of scintillation fluid was added to each well, and the plate was sealed. The readings were taken using a Microbeta2. The inhibitory activity of the test sample on the binding of ^3H-flunitrazepam to GABAA receptor membrane proteins was calculated, and the IC50 of each test sample was calculated by dose-effect curve fitting (GraphPad Prism 5 software), and the Ki of the sample was calculated from the IC50, thus evaluating the binding ability of the sample to the various subtypes of GABAA receptors.

Experiment [2] addresses α5-GABAA receptor (α5, β3, γ2 subunits) (Homo sapiens (Human), UniProt P18507+P31644). Kind of experiment: Whole cell patch clamp, inverse agonist efficacy in HEK293 cells expressing α5-GABAA receptor. It counts as cell-based. Particulars: GABA 0.05 μM, −60 mV; for inhibition at 0.1 µM: HEK293, drug 100 nM, read-out: Compound inverse agonist efficacy %. An outline of the steps: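 Stable HEK293 line co-expressing human α5, β3, γ2 subunits; whole-cell patch clamp at −60 mV, inward current evoked by 0.05 μM GABA, then compound at 100 nM in GABA solution applied. Effect derived from leak, pre- and post-drug GABA currents.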
(In general: The patch-clamp technique gives a direct electrical read-out from membranes.)

A further experiment deals with human α2β3γ2 receptors (Homo sapiens (Human), UniProt P18507+P47869). The experiment in a line: 3H-flunitrazepam competition binding, human α2β3γ2 GABAA receptor. The note with it: HEK293 cell membranes, 1 nM 3H-flunitrazepam; read-out: Ki α2. As to the method:
as §1, §2, §3

The target in a further experiment is human α3β3γ2 receptors (Homo sapiens (Human), UniProt P18507+P34903). Kind of experiment: 3H-flunitrazepam competition binding, human α3β3γ2 GABAA receptor. The note with it: HEK293 cell membranes, 1 nM 3H-flunitrazepam; read-out: Ki α3. As to the method:
as §1, §2, §3

For orientation: Ki means the dissociation constant of the complex between target and ligand, obtained from inhibition or displacement. Take `Cc1nnn(-c2ccc(C(F)F)cc2)c1COc1ccc(N2CCN(CCN3CCOCC3)C(=O)C2)nn1` [Example 95, 4-(6-((1-(4-(Difluoromethyl)phenyl)-4-methyl-1H-1,2,3-triazol-5-yl)methoxy)pyridazin-3-yl)-1-(2-morpholinoethyl)piperazin-2-one]: the Ki in experiment [1] was 0.67 nM; at human α1β3γ2 receptors, 6.23 nM. The inhibition at 0.1 µM in experiment [2] amounted to 51.9%.

As for `Cc1nnn(-c2ccc(C(F)F)cc2)c1COc1ccc(N2CCN(C)C2=O)nn1` [Example 24, 1-(6-((1-(4-(Difluoromethyl)phenyl)-4-methyl-1H-1,2,3-triazol-5-yl)methoxy)pyridazin-3-yl)-3-methylimidazolidin-2-one], the results for the Ki (in experiment [1]; on human α1β3γ2 receptors; on human α2β3γ2 receptors) were 7.72 nM, 19.3 nM and 17 nM, respectively.

For `Cc1nnn(-c2ccc(C(F)F)cc2)c1COc1ccc(N2CCN(C)C(=O)C2)cn1` [Example 22, 4-(6-((1-(4-(Difluoromethyl)phenyl)-4-methyl-1H-1,2,3-triazol-5-yl)methoxy)pyridin-3-yl)-1-methylpiperazin-2-one], the Ki in experiment [1] worked out at 2.69 nM; on human α1β3γ2 receptors it was 87 nM; at human α2β3γ2 receptors, 38.6 nM. Moreover, the inhibition at 0.1 µM in experiment [2] was determined as 48.4%.

Take `Cc1nnn(-c2ccc(C(F)F)cc2)c1COc1ccc(N2CCOC2=O)nn1` [Example 23, 3-(6-((1-(4-(Difluoromethyl)phenyl)-4-methyl-1H-1,2,3-triazol-5-yl)methoxy)pyridazin-3-yl)oxazolidin-2-one]: the Ki turned out to be 3.73 nM in experiment [1], 21.9 nM at human α1β3γ2 receptors and 13.6 nM on human α2β3γ2 receptors. Besides, in experiment [2], the inhibition at 0.1 µM was 44.1%.

For `Cc1nnn(-c2ccc(C(F)F)cc2)c1COc1ccc(N2CC(=O)NC(C)(C)C2)nn1` [Example 7, 4-(6-((1-(4-(Difluoromethyl)phenyl)-4-methyl-1H-1,2,3-triazol-5-yl)methoxy)pyridazin-3-yl)-6,6-dimethylpiperazin-2-one], the Ki in experiment [1] is 1 nM; at human α1β3γ2 receptors it was 122 nM; at human α2β3γ2 receptors, 26.2 nM; on human α3β3γ2 receptors, 17 nM.

In the case of `Cc1nnn(-c2ccc(C(F)F)cc2)c1COc1ccc(N2CCN(CCO)C(=O)C2)nn1` [Example 59, 4-(6-((1-(4-(Difluoromethyl)phenyl)-4-methyl-1H-1,2,3-triazol-5-yl)methoxy)pyridazin-3-yl)-1-(2-hydroxyethyl)piperazin-2-one], the Ki in experiment [1] stood at 3.97 nM. In addition, in experiment [2], the inhibition at 0.1 µM amounted to 44.9%.

For the compound `Cc1nnn(-c2ccc(C(F)F)cc2)c1COc1ccc(N2CC(C(=O)N3CCOCC3)C2)cn1` [Example 160, (1-(6-((1-(4-(Difluoromethyl)phenyl)-4-methyl-1H-1,2,3-triazol-5-yl)methoxy)pyridin-3-yl)azetidin-3-yl)(morpholino)methanone], the Ki in experiment [1] was 6.21 nM. In addition, the inhibition at 0.1 µM in experiment [2] was 42.7%.

As for `CNS(=O)(=O)C1CCN(c2ccc(OCc3c(C)nnn3-c3ccc(C(F)F)cc3)nn2)C1` (stereo not shown) [Example 64, 1-(6-((1-(4-(Difluoromethyl)phenyl)-4-methyl-1H-1,2,3-triazol-5-yl)methoxy)pyridazin-3-yl)-N-methylpyrrolidine-3-sulfonamide], the Ki in experiment [1] was found to be 1.45 nM. Also, the inhibition at 0.1 µM in experiment [2] was 41.1%.

Take `Cn1nnc(-c2ccc(F)cc2)c1COc1ccc(N2CCNC(=O)C2)nn1` [Example 128, 4-(6-((4-(4-Fluorophenyl)-1-methyl-1H-1,2,3-triazol-5-yl)methoxy)pyridazin-3-yl)piperazin-2-one]: the Ki in experiment [1] was determined as 22.5 nM. Further, the inhibition at 0.1 µM in experiment [2] worked out at 53.9%.

Take `Cc1nnn(-c2ccc(C(F)F)cc2)c1COc1ccc(N2CCNC(=O)CC2)nn1` [Example 3, 1-(6-((1-(4-(Difluoromethyl)phenyl)-4-methyl-1H-1,2,3-triazol-5-yl)methoxy)pyridazin-3-yl)-1,4-diazepan-5-one]: the Ki in experiment [1] came out at 1.28 nM. Also, the inhibition at 0.1 µM in experiment [2] worked out at 40.8%.

In the case of `Cc1nnn(-c2ccc(C(F)F)cc2)c1COc1ccc(N2CCN3C(=O)CNC(=O)[C@H]3C2)nn1` [Example 65, (R)-8-(6-((1-(4-(Difluoromethyl)phenyl)-4-methyl-1H-1,2,3-triazol-5-yl)methoxy)pyridazin-3-yl)hexahydro-1H-pyrazino[1,2-a]pyrazine-1,4(6H)-dione], in experiment [1], the Ki was found to be 2.37 nM. In experiment [2], the inhibition at 0.1 µM turned out to be 56.1%.

As to `Cc1nnn(-c2ccc(C(F)F)cc2)c1COc1ccc(N2CCN3CC(CC(C)C)NC(=O)[C@@H]3C2)nn1` (single isomer, unassigned) [Example 209], the Ki in experiment [1] was found to be 2.04 nM. In addition, the “Compound inverse agonist efficacy %” value in experiment [2] (drug 100 nM) is −52.08%.

With `Cc1nnn(-c2ccc(C(F)F)cc2)c1COc1ccc(N2CCN(CC#N)C(=O)C2)nn1` [Example 99, 2-(4-(6-((1-(4-(Difluoromethyl)phenyl)-4-methyl-1H-1,2,3-triazol-5-yl)methoxy)pyridazin-3-yl)-2-oxopiperazin-1-yl)acetonitrile], the Ki in experiment [1] worked out at 1.95 nM. For the same compound, the inhibition at 0.1 µM in experiment [2] is 48%.

With `Cc1nnn(-c2ccc(C(F)F)cc2)c1COc1ccc(N2CCN3C(C(C)C)CNC(=O)[C@@H]3C2)nn1` (stereo partly shown) [Example 207], the Ki in experiment [1] was found to be 4.92 nM. For the same compound, in experiment [2], the inhibition at 0.1 µM stood at 51.9%.

Consider `Cc1nnn(-c2ccc(C(F)F)cc2)c1COc1ccc(N2CC[C@H]3CCNC(=O)[C@@H]3C2)nn1` (relative stereo) [Example 124, trans-7-(6-((1-(4-(Difluoromethyl)phenyl)-4-methyl-1H-1,2,3-triazol-5-yl)methoxy)pyridazin-3-yl)octahydro-2,7-naphthyridin-1(2H)-one], for which the Ki in experiment [1] is 2.4 nM. For the same compound, in experiment [2], the inhibition at 0.1 µM is 48.4%.

Turning to `Cc1nnn(-c2ccc(C(F)F)cc2)c1COc1ccc(N2CCN(CC(F)(F)F)C(=O)C2)nn1` [Example 62, 4-(6-((1-(4-(Difluoromethyl)phenyl)-4-methyl-1H-1,2,3-triazol-5-yl)methoxy)pyridazin-3-yl)-1-(2,2,2-trifluoroethyl)piperazin-2-one], the Ki in experiment [1] was found to be 1.18 nM. For the same compound, in experiment [2], the inhibition at 0.1 µM came to 44.6%.

As for `Cc1nnn(-c2ccc(C(F)F)cc2)c1COc1ccc(N2CC(C(=O)O)C2)nn1` [Example 37, 1-(6-((1-(4-(Difluoromethyl)phenyl)-4-methyl-1H-1,2,3-triazol-5-yl)methoxy)pyridazin-3-yl)azetidine-3-carboxylic acid], the Ki in experiment [1] amounted to 12.3 nM. In experiment [2], the inhibition at 0.1 µM was 50.6%.

In the case of `Cc1nnn(-c2ccc(C(F)F)cc2)c1COc1ccc(N2CC(C(=O)NC3COC3)C2)nn1` [Example 45, 1-(6-((1-(4-(Difluoromethyl)phenyl)-4-methyl-1H-1,2,3-triazol-5-yl)methoxy)pyridazin-3-yl)-N-(oxetan-pyridin-3-yl)azetidine-3-carboxamide], in experiment [1], the Ki is 3.26 nM. Further, the inhibition at 0.1 µM in experiment [2] turned out to be 50.8%.

For `Cc1nnn(-c2ccc(C(F)F)cc2)c1COc1ccc(C2=CCCOC2)nn1` [Example 90, 3-((1-(4-(Difluoromethyl)phenyl)-4-methyl-1H-1,2,3-triazol-5-yl)methoxy)-6-(5,6-dihydro-2H-pyran-3-yl)pyridazine], the Ki in experiment [1] stood at 0.75 nM. Further, the inhibition at 0.1 µM in experiment [2] amounted to 49.2%.
